Measured values from patent US11357752B2, “Carolacton and derivatives thereof for use in the treatment of cell proliferation disorders” (Helmholtz-Zentrum für Infektionsforschung GmbH, priority 2017, dated 2022).
≈ marks a conversion by molar mass, not a printed value. Like-named read-outs stand apart in the source and are kept apart here.

Key:
[1] = system: E. coli ToIC; assay: Minimum inhibition concentration (MIC); format: cell-based; details: Escherichia coli, read-out: minimum inhibition concentration (MIC)
From the text: First, the minimum inhibition concentration (MIC) of carolacton on E. coli ToIC strain has been determined. We started to develop the resistant mutants on CASO agar plates supplemented with 4× the MIC concentration of carolacton as selection pressure. Different numbers of E. coli ToIC cells from 1×10^7 to 10^9 were spread on caso agar plate with carolacton, respectively. After 7 days, E. coli ToIC colonies, which were resistant to carolacton, started to form on the agar plates. The mutants picked were inoculated in liquid MHB medium supplemented with carolacton.

[2] = biological target: T1, spFoID (Streptococcus pneumoniae serotype 4, UniProt Q97RI9); assay: FoID dehydrogenase (DH) enzyme assay; format: biochemical, S. pneumoniae
T1 construct: made in house; host or cells: E. coli BL21 (DE3)
Method: (6R,S)-5,10-Methylene-5,6,7,8-tetrahydrofolic acid ((6R,S)-5,10-CH2-THF), calcium salt and (6R,S)-5,10-Methenyl-5,6,7,8-tetrahydrofolic acid ((6R,S)-5,10-CH=THF) chloride were purchased from Schircks Laboratories (Bauma, Switzerland) and were used as substrates for FoID dehydrogenase and cyclohydrolase enzyme assays, respectively. Only the R-isomer, which accounts for 50% of (6R,S)-5,10-CH2-THF and (6R,S)-5,10-CH=THF, respectively, is used by the enzyme. (6R,S)-5,10-CH2-THF was dissolved in N2-spargeled basic buffer (50 mM Tris-HCl (pH 8.0), 100 mM β-mercaptoethanol) as described by Sah and Varshney, 2015a (6R,S)-5,10-CH=THF was first dissolved in DMSO as a 100 mM stock solution.
Because FoID is a bifunctional enzyme, dehydrogenase and cyclohydrolase activities were determined for FoID enzyme kinetics, respectively. The dehydrogenase activity of FoID was assayed for its substrate 5,10-CH2-THF and cofactor NADP+ (in the case of MTHFD2, NAD+ was used as cofactor) based on monitoring the formation of 5,10-CH=THF while the cyclohydrolase activity of FoID was determined for its substrate 5,10-CH=THF by monitoring the hydrolysis of 5,10-CH2-THF. The enzyme kinetics for the dehydrogenase activity of all FoIDs except hsMTHFD1_DC were determined at 30° C. in 50 mM Tris-HCl (pH 7.5), 30 mM β-mercaptoethanol. The hsMTHFD1_DC dehydrogenase activity was measured in 25 mM MOPS (pH 7.3), 30 mM β-mercaptoethanol at 30° C. To measure the enzyme kinetics constants for 5,10-CH2-THF, for example in the case of ecFoID, the NADP concentration was fixed at 1 mM and the concentration of 5,10-CH2-THF varied from 5 μM to 1,500 μM (R-isomer). Similarly, to measure the kinetic constants of ecFoID for NADP+, the concentration of 5,10-CH2-THF (R-isomer) was fixed at 1 mM and the concentration of NADP+ varied from 10 μM to 1,500 μM. For different FoIDs, the varied concentration range of substrates could be different. […] To monitor the formation of 5,10-CH=THF, the absorbance of the reaction mixture was monitored at 350 nm in micro UV cuvettes (BRAND, Essex, Connecticut, USA). The concentration of 5,10-CH=THF produced in the reaction was determined using an extinction co-efficient of 0.0249 μM-1 cm-1. […] The consumption of 5,10-CH=THF was measured by recording the absorbance of the reactions at 355 nm using the TECAN Infinite 200 PRO equipped with a monochromator. […] The inhibition constants (Ki) of carolacton on FoID were determined by measuring the apparent Km values when adding certain amounts of carolacton to the enzyme reactions. […] To compare the inhibition effects of carolacton between the different FoIDs, the half maximal inhibitory concentration (IC50) of carolacton on the same amount of enzyme was determined for FoIDs involved in this study. […]

T1 sequence (Q97RI9 whole entry): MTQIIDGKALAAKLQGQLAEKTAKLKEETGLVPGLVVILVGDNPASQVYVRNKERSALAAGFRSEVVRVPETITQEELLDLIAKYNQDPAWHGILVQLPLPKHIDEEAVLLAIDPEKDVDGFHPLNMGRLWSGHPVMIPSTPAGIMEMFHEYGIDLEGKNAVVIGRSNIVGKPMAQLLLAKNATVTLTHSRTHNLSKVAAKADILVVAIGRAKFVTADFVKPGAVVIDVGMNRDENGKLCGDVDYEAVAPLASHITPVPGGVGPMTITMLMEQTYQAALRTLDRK

CO[C@H](CC(=O)O)[C@@H](C)C(=O)[C@H](C)/C=C(\C)[C@H]1OC(=O)[C@H](O)[C@H](O)/C=C/[C@H](C)CCC[C@@H]1C [Carolacton, carolacton]
MIC [1]: 0.125 µg/mL (≈ 0.267 µM) | IC50 ([2]; 10 nM enzyme, read-out: IC50, carolacton inhibition on DH activity): 36.8 nM | IC80 ([2]; 10 nM enzyme, read-out: IC80, carolacton inhibition on DH activity): 169 nM | Ki ([2]; vs 5,10-CH2-THF, read-out: Ki (5,10-CH2—THF), carolacton inhibition on DH activity): 42.2 nM | Ki ([2]; vs cofactor NADP+, read-out: Ki (NADP^+), carolacton inhibition on DH activity): 34.2 nM
